Reference: patent US12173088B2, “Anti-microbial peptides” (priority 2018, dated 2024)
In brackets after ≈: the same amount, converted by molar mass. Like-named read-outs stand apart in the source and are kept apart here. Peptide text beside a SMILES is read from it.

Legend:
[1] = system: E. coli ATCC 25922; format: cell-based, Escherichia coli
Procedure: (§1) The antibacterial activity of peptides was evaluated using a standard broth microdilution protocol with minor modifications as described (Mishra, et al. (2012) J. Am. Chem. Soc., 134:12426-12429). In brief, logarithmic phase bacterial cultures (i.e., optical density at 600 nm≈0.5) were diluted to OD600 0.001 and partitioned into a 96-well polystyrene microplate at 90 μL per well. After treatment with 10 μL of peptide solutions two fold diluted to various concentrations, microplates were incubated at 37° C. overnight and read on a ChroMate® 4300 Microplate Reader at 630 nm (GMI, Ramsey, MN). […] To study the influence of medium conditions on the antimicrobial activity of peptides against S. aureus USA300, up to 200 mM sodium chloride (NaCl), 2 mM of calcium chloride, 5-10% of human serum, mouse plasma, fluid, or supernatants of tissue homogenates were included into the assays.
(§2) The antibacterial activity of peptides was evaluated using a standard broth microdilution protocol with minor modifications (Mishra, et al. (2017) Acta Biomater., 49:316-328). In brief, logarithmic phase bacterial cultures (i.e., optical density at 600 nm≈0.5) were diluted to 0.001 OD and aliquoted 90 μL per well into a 96-well polystyrene microplate. Added 10 μL peptides per well with various concentrations, plates were incubated at 37° C., overnight. Post incubation the plates are read at 630 nm using a ChroMate® Microplate Reader (GMI). […] To study the influence of medium conditions on the antimicrobial activity of peptides against S. aureus USA300 at different pHs (6.8, 7.2, and 8.0), 150 mM sodium chloride (NaCl), 5-10% of human serum, mouse plasma, and peritoneal fluid were included into the assays.

[2] = system: S. aureus USA300; assay: microbe, parasite or virus in culture; format: cell-based, Staphylococcus aureus
From the text: The bacterial strains used include the Gram-positive strains Staphylococcus aureus USA300 LAC, S. epidermidis 1457, and Bacillus subtilis 168, as well as the Gram-negative isolates Escherichia coli K12 and Acinetobacter baumannii B2367-12. Additional, drug resistance strains include Gram-positive Enterococcus faecium V286-17 (VRE) and S. aureus M838-17 (MRSA) and Gram-negative E. coli E423-17, E. coli E416-17 (ampC), and P. aeruginosa E411-17. Bacteria were cultivated in tryptic soy broth (TSB) (BD Bioscience, MD).
as §1
(§3) The bacterial strains used include the Gram-positive bacteria methicillin-resistant Staphylococcus aureus USA300, Enterococcus faecium V286-17 (VRE), S. aureus M838-17 (MRSA) and Gram-negative bacteria E. coli E423-17, E416-7 (ampC), P. aeruginosa E411-17, PA01, K. pneumoniae E406-17, ATCC13883, and A. baumannii B26-16. Bacteria were cultivated in tryptic soy broth (TSB) from BD Bioscience.
as §2

[3] = system: human red blood cells (hRBCs); assay: Hemolytic assay; format: cell-based
Procedure: Briefly, human red blood cells (hRBCs) were washed three times with phosphate buffer saline (PBS) and diluted to a 2% solution (v/v). After peptide treatment, incubation at 37° C. for one hour, and centrifugation at 5000 rpm for 10 minutes, aliquots of the supernatant were carefully transferred to a fresh 96-well microplate. The amount of hemoglobin released was measured at 545 nm. The percent lysis was calculated by assuming 100% release when human blood cells were treated with 2% Triton™ X-100, and 0% release when incubated with PBS buffer. The peptide concentration that caused 50% lysis of hRBCs is defined as HL50. The cell selectivity index (CSI) was calculated as the ratio between HL50 and MIC of the corresponding peptide against a select pathogenic species.
Hemolytic assays of peptides were performed as described (Mishra, et al. (2017) Acta Biomater., 49:316-328). Briefly, human red blood cells (hRBCs) obtained from UNMC Blood Bank. The blood washed 3× with isotonic saline (0.9% NaCl) and diluted to 2% blood cells (v/v). Peptide horine and verine at various concentrations were added into the 2% blood cells and incubated at 37° C. for 1 hour. Post incubation the plates were spun at 2000 rpm for 10 minutes, aliquots of the supernatant were carefully transferred to a fresh 96-well microplate. The amount of cells lysed is proportional to the hemoglobin released and measured at 545 nm using a ChroMate® microplate reader. The percent lysis was calculated by assuming 100% release when human blood cells were treated with 1% Triton™ X-100, and 0% release when incubated with PBS. The peptide concentration that caused 50% lysis of hRBCs is defined as HL50.

[4] = system: K. pneumoniae ATCC 13883; format: cell-based, Klebsiella pneumoniae
Procedure: as §1, §3, §2

[5] = system: P. aeruginosa PAO1; format: cell-based, Pseudomonas aeruginosa
Procedure: as §1, §3, §2

MIC E. coli ATCC 25922 ([1]; ATCC 25922) [µM]	MIC S. aureus USA 300 ([2]; USA300) [µM]	MIC K. pneumoniae ([4]; ATCC 13883) [µM]	MIC P. aeruginosa PAO1 ([5]; PAO1) [µM]	MIC K. pneumonia ATCC 13883 ([4]; ATCC 13883) [µM]	SMILES	HL50 [3] [µM]	Activity against Pseudomonas aeruginosa PAO1 [5]	MIC E. coli ATCC 25922 ([1]; Table 2, quantified by UV) [µM]	MIC S. aureus USA 300 ([2]; Table 2, peptides amidated, quantified by UV) [µM]	HL50 ([3]; Table 2, lysis of 50% hRBCs (2% v/v)) [µM]	MIC K. pneumoniae ([4]; Table 2, quantified by UV) [µM]	MIC P. aeruginosa PAO1 ([5]; Table 2, quantified by UV) [µM]
3.1 (≈ 4.02 µg/mL)	0.78 (≈ 1.01 µg/mL)	6.2 (≈ 8.04 µg/mL)	12.5 (≈ 16.2 µg/mL)	–	CC(C)C[C@H](NC(=O)[C@H](CC(C)C)NC(=O)[C@H](CCCCN)NC(=O)CNC(=O)[C@H](CC(C)C)NC(=O)[C@H](CC(C)C)NC(=O)[C@H](CO)NC(=O)[C@H](CC(C)C)NC(=O)[C@H](CC(C)C)NC(=O)[C@H](CO)NC(=O)[C@H](CC(C)C)NC(=O)[C@H](C)NC(=O)CN)C(N)=O [DFT506, GALSLLSLLGKLL] (H-GALSLLSLLGKLL-NH2; N-terminus assumed)	4	active	–	–	–	–	–
>25	0.78 (≈ 1.01 µg/mL)	>25	>25	–	CC(C)C[C@H](NC(=O)[C@H](CC(C)C)NC(=O)[C@H](CCCCN)NC(=O)CNC(=O)[C@H](CC(C)C)NC(=O)[C@H](CC(C)C)NC(=O)[C@H](CO)NC(=O)[C@H](CC(C)C)NC(=O)[C@H](CC(C)C)NC(=O)[C@H](CO)NC(=O)[C@H](C)NC(=O)[C@H](CC(C)C)NC(=O)CN)C(N)=O [DFT507, GLASLLSLLGKLL] (H-GLASLLSLLGKLL-NH2; N-terminus assumed)	<3.1	–	–	–	–	–	–
3.1 (≈ 4.02 µg/mL)	0.78 (≈ 1.01 µg/mL)	3.1 (≈ 4.02 µg/mL)	>25	–	CC(C)C[C@H](NC(=O)[C@H](CC(C)C)NC(=O)[C@H](CCCCN)NC(=O)CNC(=O)[C@H](CC(C)C)NC(=O)[C@H](CC(C)C)NC(=O)[C@H](CO)NC(=O)[C@H](CC(C)C)NC(=O)[C@H](C)NC(=O)[C@H](CO)NC(=O)[C@H](CC(C)C)NC(=O)[C@H](CC(C)C)NC(=O)CN)C(N)=O [DFT508, GLLSALSLLGKLL] (H-GLLSALSLLGKLL-NH2; N-terminus assumed)	6	–	–	–	–	–	–
1.5 to 3.1	0.78 (≈ 1.01 µg/mL)	3.1 (≈ 4.02 µg/mL)	6.2 to 12.5	–	CC(C)C[C@H](NC(=O)[C@H](CC(C)C)NC(=O)[C@H](CCCCN)NC(=O)CNC(=O)[C@H](CC(C)C)NC(=O)[C@H](CC(C)C)NC(=O)[C@H](CO)NC(=O)[C@H](C)NC(=O)[C@H](CC(C)C)NC(=O)[C@H](CO)NC(=O)[C@H](CC(C)C)NC(=O)[C@H](CC(C)C)NC(=O)CN)C(N)=O [DFT509, GLLSLASLLGKLL] (H-GLLSLASLLGKLL-NH2; N-terminus assumed)	4	–	–	–	–	–	–
>25	1.56 (≈ 2.02 µg/mL)	>25	>25	–	CC(C)C[C@H](NC(=O)[C@H](CC(C)C)NC(=O)[C@H](CCCCN)NC(=O)CNC(=O)[C@H](CC(C)C)NC(=O)[C@H](C)NC(=O)[C@H](CO)NC(=O)[C@H](CC(C)C)NC(=O)[C@H](CC(C)C)NC(=O)[C@H](CO)NC(=O)[C@H](CC(C)C)NC(=O)[C@H](CC(C)C)NC(=O)CN)C(N)=O [DFT510, GLLSLLSALGKLL] (H-GLLSLLSALGKLL-NH2; N-terminus assumed)	19	–	–	–	–	–	–
3.1 (≈ 4.02 µg/mL)	0.78 (≈ 1.01 µg/mL)	3.1 (≈ 4.02 µg/mL)	12.5 (≈ 16.2 µg/mL)	–	CC(C)C[C@H](NC(=O)[C@H](CC(C)C)NC(=O)[C@H](CCCCN)NC(=O)CNC(=O)[C@H](C)NC(=O)[C@H](CC(C)C)NC(=O)[C@H](CO)NC(=O)[C@H](CC(C)C)NC(=O)[C@H](CC(C)C)NC(=O)[C@H](CO)NC(=O)[C@H](CC(C)C)NC(=O)[C@H](CC(C)C)NC(=O)CN)C(N)=O [DFT511, GLLSLLSLAGKLL] (H-GLLSLLSLAGKLL-NH2; N-terminus assumed)	14	active	–	–	–	–	–
3.1 (≈ 4.02 µg/mL)	0.78 (≈ 1.01 µg/mL)	3.1 (≈ 4.02 µg/mL)	>25	–	CC(C)C[C@H](NC(=O)[C@H](C)NC(=O)[C@H](CCCCN)NC(=O)CNC(=O)[C@H](CC(C)C)NC(=O)[C@H](CC(C)C)NC(=O)[C@H](CO)NC(=O)[C@H](CC(C)C)NC(=O)[C@H](CC(C)C)NC(=O)[C@H](CO)NC(=O)[C@H](CC(C)C)NC(=O)[C@H](CC(C)C)NC(=O)CN)C(N)=O [DFT512, GLLSLLSLLGKAL] (H-GLLSLLSLLGKAL-NH2; N-terminus assumed)	4	–	–	–	–	–	–
–	–	–	–	–	CC(C)C[C@H](NC(=O)CN)C(=O)N[C@@H](CC(C)C)C(=O)N[C@@H](CO)C(=O)N[C@@H](CC(C)C)C(=O)N[C@@H](CC(C)C)C(=O)N[C@@H](CO)C(=O)N[C@@H](CC(C)C)C(=O)N[C@@H](CC(C)C)C(=O)NCC(=O)N[C@@H](CCCCN)C(=O)N[C@@H](CC(C)C)C(=O)N[C@@H](C)C(N)=O [DFT513, GLLSLLSLLGKLA] (H-GLLSLLSLLGKLA-NH2; N-terminus assumed)	–	–	1.5 to 3.1	1.56 (≈ 2.02 µg/mL)	<3.1	12.5 to 25	>25
3.1 (≈ 4.02 µg/mL)	1.56 (≈ 2.02 µg/mL)	3.1 (≈ 4.02 µg/mL)	>25	–	CC(C)C[C@H](NC(=O)[C@H](CC(C)C)NC(=O)[C@H](CCCCN)NC(=O)CNC(=O)[C@H](CC(C)C)NC(=O)[C@H](C)NC(=O)[C@H](CCCCN)NC(=O)[C@H](CC(C)C)NC(=O)[C@H](C)NC(=O)[C@H](CO)NC(=O)[C@H](CC(C)C)NC(=O)[C@H](CC(C)C)NC(=O)CN)C(N)=O [DFT514, GLLSALKALGKLL] (H-GLLSALKALGKLL-NH2; N-terminus assumed)	36	–	–	–	–	–	–
–	–	–	25 to 50	>25	CC[C@H](C)[C@H](NC(=O)[C@H](CCCNC(=N)N)NC(=O)[C@H](CCCNC(=N)N)NC(=O)[C@H](CCCNC(=N)N)NC(=O)[C@H](Cc1c[nH]c2ccccc12)NC(=O)[C@H](Cc1c[nH]c2ccccc12)NC(=O)[C@@H](N)Cc1c[nH]c2ccccc12)C(=O)N[C@@H](Cc1c[nH]c2ccccc12)C(N)=O [WW303, WWWRRRIW] (H-WWWRRRIW-NH2; N-terminus and C-terminus assumed)	>200	–	–	–	–	–	–
–	–	–	12.5 (≈ 15.9 µg/mL)	>25	CC[C@H](C)[C@H](NC(=O)[C@H](CCCNC(=N)N)NC(=O)[C@H](CCCNC(=N)N)NC(=O)[C@H](CC(C)C)NC(=O)[C@H](Cc1c[nH]c2ccccc12)NC(=O)[C@H](Cc1c[nH]c2ccccc12)NC(=O)[C@@H](N)Cc1c[nH]c2ccccc12)C(=O)N[C@@H](CCCNC(=N)N)C(N)=O [WW305, WWWLRRIR] (H-WWWLRRIR-NH2; N-terminus and C-terminus assumed)	>200	–	–	–	–	–	–
